Laboratory results published in patent US11685716B2, “Plant growth inhibiting agent, and plant growth inhibiting method using same” (NATIONAL UNIVERSITY CORPORATION KUMAMOTO UNIVERSITY, priority 2017, dated 2023).

Legend:
[1] = system: Japanese millet; test: Seed treatment, plant growth inhibition index (Evaluation 11); format: in vivo; set-up: key: 0: No effect; 1: Growth of the root part was inhibited 50% or less compared with non-treated area.; 2: Growth of the root part was inhibited 50% or more compared with non-treated area.; 3: Growth of the root part was substantially inhibited.; 4: Germination was inhibited
Experimental: (§1) The compound of the present invention (2 mg) was dissolved in a 1.5% Tween dimethylformamide solution (100 μL) to use as a test chemical solution.
(§2) Eight mL of sterilized water was poured to a cherry cup (100Φ×45 mm) lined with a filter paper, subsequently 81.1 μL of the sterilized water was removed, and 81.1 μL of the test chemical solution was added such that a final concentration of the compound was 800 μM.
(§3) Further, cherry cups were similarly prepared such that a final concentration of the compound was 200 μM.
(§4) Seeds (Japanese millet: 3 grains, velvet leaf: 6 grains, Ragweed: 8 grains, morning glory: 2 grains) were planted on the filter paper in the cherry cups, followed by growing the plants in a thermostatic chamber at 25° C. under a light-dark cycle in which a light period is 12 hours and a dark period is 12 hours for 6 days.
(§5) In addition, with regards to the compound (9a) and the compound (9b), the plants were tested for 7 days.
(§6) Plant growth inhibition effects of the compounds were evaluated by conversion to indexes according to the following investigation criteria.

[2] = system: Ragweed; test: as above; format: in vivo; set-up: key: 0: No effect; 1: Growth of the root part was inhibited 50% or less compared with non-treated area.; 2: Growth of the root part was inhibited 50% or more compared with non-treated area.; 3: Growth of the root part was substantially inhibited.; 4: Germination was inhibited
Experimental: as §1, §2, §3, §4, §5, §6

[3] = system: velvet leaf; test: as above; format: in vivo; set-up: key: 0: No effect; 1: Growth of the root part was inhibited 50% or less compared with non-treated area.; 2: Growth of the root part was inhibited 50% or more compared with non-treated area.; 3: Growth of the root part was substantially inhibited.; 4: Germination was inhibited
Experimental: as §1, §2, §3, §4, §5, §6

[4] = system: morning glory; test: as above; format: in vivo; set-up: key: 0: No effect; 1: Growth of the root part was inhibited 50% or less compared with non-treated area.; 2: Growth of the root part was inhibited 50% or more compared with non-treated area.; 3: Growth of the root part was substantially inhibited.; 4: Germination was inhibited
Experimental: as §1, §2, §3, §4, §5, §6

[5] = system: thale cress; test: Plant growth inhibition index, thale cress on agar medium in test tube (Evaluation 8, 9); format: in vivo, thale cress (Col-0, wild-type strain); set-up: key: 0: No effect; 1: Growth of the root part was inhibited 50% or less compared with non-treated area.; 2: Growth of the root part was inhibited 50% or more compared with non-treated area.; 3: Growth of the root part was substantially inhibited.; 4: Germination was inhibited; conditions: for Index: Concentration 200 μM, 8 days (Evaluation 9, Table 2)
Experimental: 0.44% (w/v) Mixed salts for Murashige and Skoog medium (SIGMA), 1% (w/v) sucrose, and 0.05% (w/v) MES were mixed, and pH of the solution was adjusted to pH 5.7 with potassium hydroxide. 1.5% (w/v) Agar was added to the mixture, which was sterilized at 120° C. in an autoclave for 20 minutes. The test compound and dimethylformamide containing 1.5% of polyoxyethylenesorbitan monolaurate for a control experiment, were added at this stage and blended. In addition, the compound was used by adjusting an addition concentration to 200 μM. Four ml each of the medium was dispensed in sterile glass test tube ([…] RIKA GLASS CO., LTD.) to prepare agar medium.
As a plant material, Col-0, which is a wild-type strain of thale cress, was used.
Seeds, after their surfaces were sterilized, were planted on the agar medium, and the growth of the plant was carried out in a plant incubator (CFH-405) under the conditions of an illuminance of 3 at 23° C. with constant light. The plants on the agar medium were grown for 8 days in the chamber.
The plant growth inhibition effect of the compounds was evaluated by conversion to indexes according to the following investigation criteria.

[6] = system: purple amaranth; test: Spray treatment to stems and leaves, killing weed index (Evaluation 10); format: in vivo; conditions: 2000 g active ingredient per hectare, two weeks later
Experimental: (§7) POA allyl phenyl ether (4.1 parts by weight), POE-POP glycol (1 part by weight), POE sorbitan laurate (0.8 parts by weight), glycerin (2.6 parts by weight), dimethylformamide (65.9 parts by weight), N-methylpyrrolidone (5.1 parts by weight), cyclohexanone (15.4 parts by weight), and aromatic hydrocarbon (5.1 parts by weight) were mixed and dissolved to prepare an emulsion. The compounds of the present invention (4 mg) were dissolved in this emulsion (100 μL) to prepare a test emulsion. In addition, POA means “polyoxyalkylene”, POE means “polyoxyethylene”, and POP means “polyoxypropylene.”
(§8) Four hundred μL of the above test emulsion was diluted with 7600 μL of water to use as a test spray liquid.
(§9) Further, 400 μL of the above test emulsion was diluted with 1600 μL of a 1% Tween20 aqueous solution to use as a spray liquid for a small amount spray test.
(§10) For a comparative spray liquid, 53 μL of a 30% pendimethalin emulsion (Gogosan emulsion: manufactured by BASF Japan) as a control pesticides was diluted with 7947 μL of water. Further, for a comparative spray liquid for a small amount spray test, 53 μL of the 30% pendimethalin emulsion was diluted with 1947 μL of water.
(§11) A 150 cm^2 pot was filled with a soil, seeds of each purple amaranth, Japanese bristlegrass, southern crabgrass, and velvet leaf were sown on the surface layer, lightly covered with a soil and grown in a greenhouse. When each plant grew to a plant height of 2 to 9 cm, the test spray liquid was sprayed to the stem and leaf parts with a small spraying machine such that an active ingredient amount was 2000 g per hectare and a sprayed liquid amount was 1000 L per hectare.
(§12) Similarly, the test spray liquid for a small amount spray test was sprayed to the stem and leaf parts with a small spraying machine such that an active ingredient amount was 2000 g per hectare and a sprayed liquid amount was 250 L per hectare.
(§13) Two weeks later, the above-ground grass weight in non-treated areas and the above-ground grass weight in treated areas, by the weed, were measured to calculate a killing weed rate by the following calculating formula.
(§14) (a) Calculating Formula of Weeding Rate Killing weed rate (%)=(above-ground grass weight in non-treated area−above-ground grass weight in treated area)/(above-ground grass weight in non-treated area)×100 (b) Killing Weed Indexes
(§15) The obtained killing weed rates were evaluated, such that a killing weed index was “10” when a killing weed rate is 100%, as “9” when a killing weed rate is 99% to 90%, “8” when a killing weed rate is 89% to 80%, “7” when a killing weed rate is 79% to 70%, “6” when a killing weed rate is 69% to 60%, “5” when a killing weed rate is 59% to 50%, “4” when a killing weed rate is 49% to 40%, “3” when a killing weed rate is 39% to 30%, “2” when a killing weed rate is 29% to 20%, “1” when a killing weed rate is 19% to 10%, and “0” when a killing weed rate is 9% to 0%.

[7] = system: southern crabgrass; test: as above; format: in vivo; conditions: 2000 g active ingredient per hectare, two weeks later
Experimental: as §7, §8, §9, §10, §11, §12, §13, §14, §15

[8] = system: velvet leaf; test: as above; format: in vivo; conditions: 2000 g active ingredient per hectare, two weeks later
Experimental: as §7, §8, §9, §10, §11, §12, §13, §14, §15

[9] = system: Japanese bristlegrass; test: as above; format: in vivo; conditions: 2000 g active ingredient per hectare, sprayed liquid amount 250 L/ha, two weeks later
Experimental: as §7, §8, §9, §10, §11, §12, §13, §14, §15

[10] = 200 μM, 6 days (9a, 9b: 7 days)
[11] = sprayed liquid amount 1000 L/ha

| SMILES | plant growth inhibition index, Japanese millet [1, 10] | plant growth inhibition index, Japanese millet ([1]; 800 μM, 6 days) | plant growth inhibition index, Ragweed [2, 10] | plant growth inhibition index, Ragweed ([2]; 800 μM, 6 days) | plant growth inhibition index, Velvet leaf [3, 10] | plant growth inhibition index, Velvet leaf ([3]; 800 μM, 6 days) | plant growth inhibition index, Morning glory [4, 10] | plant growth inhibition index, Morning glory ([4]; 800 μM, 6 days) | index on the plant growth inhibition effect ([5]; 200 μM, 8 days (Evaluation 8)) | Index [5] | killing weed index, Purple amaranth ([6]; sprayed liquid amount 250 L/ha) | killing weed index, Purple amaranth [6, 11] | killing weed index, Southern crabgrass ([7]; sprayed liquid amount 250 L/ha) | killing weed index, Southern crabgrass [7, 11] | killing weed index, Velvet leaf ([8]; sprayed liquid amount 250 L/ha) | killing weed index, Velvet leaf [8, 11] | killing weed index, Japanese bristlegrass [9] |
| --- | --- | --- | --- | --- | --- | --- | --- | --- | --- | --- | --- | --- | --- | --- | --- | --- | --- |
| O=C(O)c1cccn1OCc1ccc(Oc2ccccc2)cc1 [Compound 8f] | 3 (Growth of the stem and leave parts was inhibited 30% or more compared with non-treated area, or growth of the only root part was inhibited 60% or more compared with non-treated area.) | 4 (Growth of the stem and leave parts was inhibited 40% or more compared with non-treated area, or growth of the only root part was inhibited 80% or more compared with non-treated area.) | 0 | 5 (Growth of the stem and leave parts was inhibited 50% or more compared with non-treated area, or growth of the only root part was inhibited 100% or more compared with non-treated area.) | 0 | 5 (Growth of the stem and leave parts was inhibited 50% or more compared with non-treated area, or growth of the only root part was inhibited 100% or more compared with non-treated area.) | 0 | 0 | 3 |  |  |  |  |  |  |  |  |
| CCCCCCCCCOn1cccc1C(=O)N(C)C [Compound 9g] | 3 (Growth of the stem and leave parts was inhibited 30% or more compared with non-treated area, or growth of the only root part was inhibited 60% or more compared with non-treated area.) | 4 (Growth of the stem and leave parts was inhibited 40% or more compared with non-treated area, or growth of the only root part was inhibited 80% or more compared with non-treated area.) | 5 (Growth of the stem and leave parts was inhibited 50% or more compared with non-treated area, or growth of the only root part was inhibited 100% or more compared with non-treated area.) | 7 (Growth of the stem and leave parts was inhibited 70% or more compared with non-treated area.) | 3 (Growth of the stem and leave parts was inhibited 30% or more compared with non-treated area, or growth of the only root part was inhibited 60% or more compared with non-treated area.) | 3 (Growth of the stem and leave parts was inhibited 30% or more compared with non-treated area, or growth of the only root part was inhibited 60% or more compared with non-treated area.) | 0 | 0 |  | 3 |  |  |  |  |  |  |  |
| CCCCCCCCCOn1cccc1C(=O)N1CCOCC1 [Compound 9h] | 3 (Growth of the stem and leave parts was inhibited 30% or more compared with non-treated area, or growth of the only root part was inhibited 60% or more compared with non-treated area.) | 6 (Growth of the stem and leave parts was inhibited 60% or more compared with non-treated area.) | 0 | 6 (Growth of the stem and leave parts was inhibited 60% or more compared with non-treated area.) | 3 (Growth of the stem and leave parts was inhibited 30% or more compared with non-treated area, or growth of the only root part was inhibited 60% or more compared with non-treated area.) | 5 (Growth of the stem and leave parts was inhibited 50% or more compared with non-treated area, or growth of the only root part was inhibited 100% or more compared with non-treated area.) | 0 | 4 (Growth of the stem and leave parts was inhibited 40% or more compared with non-treated area, or growth of the only root part was inhibited 80% or more compared with non-treated area.) |  | 3 |  |  |  |  |  |  |  |
| CCCCCOn1cc(-c2cccnc2)cc1C(=O)O [Compound 9i] | 3 (Growth of the stem and leave parts was inhibited 30% or more compared with non-treated area, or growth of the only root part was inhibited 60% or more compared with non-treated area.) | 4 (Growth of the stem and leave parts was inhibited 40% or more compared with non-treated area, or growth of the only root part was inhibited 80% or more compared with non-treated area.) | 0 | 4 (Growth of the stem and leave parts was inhibited 40% or more compared with non-treated area, or growth of the only root part was inhibited 80% or more compared with non-treated area.) | 0 | 6 (Growth of the stem and leave parts was inhibited 60% or more compared with non-treated area.) | 0 | 10 |  | 2 (Growth of the root part was inhibited 50% or more compared with non-treated area.) |  |  |  |  |  |  |  |
| CCC(CC)Nc1c([N+](=O)[O-])cc(C)c(C)c1[N+](=O)[O-] [pendimethalin, reference compound] |  |  |  |  |  |  |  |  |  |  | 6 (“6” when a killing weed rate is 69% to 60%) | 0 (“0” when a killing weed rate is 9% to 0%) | 6 (“6” when a killing weed rate is 69% to 60%) | 6 (“6” when a killing weed rate is 69% to 60%) | 5 (“5” when a killing weed rate is 59% to 50%) | 4 (“4” when a killing weed rate is 49% to 40%) | 6 (“6” when a killing weed rate is 69% to 60%) |
